Laboratory results from US20050282889A1, “Intracorporeal medicaments for photodynamic treatment of disease” (priority 1996, published 2005).

Experiments:
[1] = Photochemical quantum yields (triplet, singlet oxygen); format: physicochemical
[2] = Absorbance properties of halogenated xanthenes (λmax, α); format: physicochemical
Excerpt: Certain general properties of this class of agents are discussed in further detail in U.S. Ser. No. 09/130,041, filed on Aug. 6, 1998, U.S. Ser. No. 09/184,388, filed on Nov. 2, 1998, and U.S. Ser. No. 09/216,787, filed on Dec. 21, 1998, which are herein incorporated by reference in their entirety.

[3] = Partition coefficient Kp, n-octanol / phosphate buffered saline; format: physicochemical; conditions: ratio of equilibrium concentrations, n-octanol vs PBS pH=7.4
Renal Adenocarcinoma = test: Intratumoral injection plus light, murine tumor model; format: in vivo; conditions: i.t. ICG medicament, tumor 3 × 4 × 5 mm; for No. Tumors Cured: 4 treated
[4] = Retention of agent after intratumoral or peritumoral injection; conditions: intratumoral injection (ICG: within 24 hours)
Experimental: Initially, tumor cell suspensions (e.g. melanoma, breast tumor, liver tumor, renal carcinoma, gall bladder tumor or prostate tumor) were injected subcutaneously into the flanks of nude mice resulting in formation of primary tumors, within a few weeks, at the injection site having a volume of approximately 0.1 cm^3 to 0.5 cm^3.

φ (singlet oxygen) MeOH [1]	α [2] [L/cm/mol]	λmax (nm) EtOH [2] [nm]	λmax (nm) H2O [2] [nm]	λmax (nm) MeOH [2] [nm]	φ (singlet oxygen) EtOH [1]	φ (singlet oxygen) H2O [1]	Compound	also measured
0.72							CCN(CC)CC.CCN(CC)CC.O=C(O)c1c(Cl)c(Cl)c(Cl)c(Cl)c1-c1c2cc(I)c(=O)c(I)c-2oc2c(I)c(O)c(I)cc12 [Rose Bengal Derivative II]	
0.09	64000	499	490	492	0.03	0.03	O=C1OC2(c3ccc(O)cc3Oc3cc(O)ccc32)c2ccccc21 [Fluorescein]	φ (triplet) MeOH [1]: 0.03
	29000		515				O=C1OC2(c3ccc(O)cc3Oc3cc(O)ccc32)c2c(Cl)c(Cl)c(Cl)c(Cl)c21 [4,5,6,7-Tetrachlorofluorescein]	
		511	502		0.07	0.04	O=C1OC2(c3cc(Cl)c(O)cc3Oc3cc(O)c(Cl)cc32)c2ccccc21 [2′,7′-Dichlorofluorescein]	
	14000	510	504		0.42	0.32	Dibromofluorescein	
0.39	91000	523	517	527	0.57	0.32	O=C([O-])c1ccccc1-c1c2cc(Br)c(=O)c(Br)c-2oc2c(Br)c([O-])c(Br)cc12.[Na+].[Na+] [Eosin Y]	φ (triplet) MeOH [1]: 0.28
	14000			450			O=C1OC2(c3ccccc31)c1ccc(O)c(Br)c1Oc1c2ccc(O)c1Br [Solvent Red 72]	
0.74		563					CCN(CC)CC.CCOC(=O)c1c(Cl)c(Cl)c(Cl)c(Cl)c1-c1c2cc(I)c(=O)c(I)c-2oc2c(I)c(O)c(I)cc12 [Rose Bengal Derivative I]	
		520	510		0.05	0.05	O=C1OC2(c3ccccc31)c1cc(Cl)c(O)c(Cl)c1Oc1c2cc(Cl)c(O)c1Cl [2′,4′,5′,7′-Tetrachlorofluorescein]	
0.62	91000	532	528	529	0.63	0.69	O.O=C([O-])c1ccccc1-c1c2cc(I)c(=O)c(I)c-2oc2c(I)c([O-])c(I)cc12.[Na+].[Na+] [Erythrosin B]	Kp (partition coefficient) [3]: 1.9; φ (triplet) MeOH [1]: 0.62
	58000	513	506		0.48	0.33	Diiodofluorescein	
		511	502		0.07	0.04	O=C1OC2(c3ccccc31)c1ccc(O)c(Cl)c1Oc1c2ccc(O)c1Cl [4′,5′-Dichlorofluorescein]	
	11000	532					CCOC(=O)c1ccccc1-c1c2cc(Br)c(=O)c(Br)c-2oc2c(Br)c([O-])c(Br)cc12.[K+] [Ethyl Eosin]	
							CC1(C)C(/C=C/C=C/C=C/C=C2\N(CCCCS(=O)(=O)O)c3ccc4ccccc4c3C2(C)C)=[N+](CCCCS(=O)(=O)[O-])c2ccc3ccccc3c21 [Indocyanine Green, reference compound]	Cure Rate (Renal Adenocarcinoma; No Light control, 0 J/cm^2): 0%; No. Tumors Cured (Renal Adenocarcinoma; No Light control, 0 J/cm^2): 0; Cure Rate (Renal Adenocarcinoma; 50 J/cm^2 805 nm): 0%; No. Tumors Cured (Renal Adenocarcinoma; 50 J/cm^2 805 nm): 0; Tissue localization after i.t. administration [4]: substantively migrated out of the tumor
	39000		522				O=C(O)c1ccccc1-c1c2cc([N+](=O)[O-])c(=O)c(Br)c-2oc2c(Br)c(O)c([N+](=O)[O-])cc12 [Eosin B]	

Compound	φ (singlet oxygen) MeOH [1]	α [2] [L/cm/mol]	λmax (nm) EtOH [2] [nm]	λmax (nm) H2O [2] [nm]	λmax (nm) MeOH [2] [nm]	φ (singlet oxygen) EtOH [1]	φ (singlet oxygen) H2O [1]	also measured
O=C([O-])c1c(Cl)c(Cl)c(Cl)c(Cl)c1-c1c2cc(Br)c(=O)c(Br)c-2oc2c(Br)c([O-])c(Br)cc12.[Na+].[Na+] [Phloxine B]		100000	548	541	547	0.63	0.40	Kp (partition coefficient) [3]: 1.1
